Measured values: patent publication US20220160815A1, “PEPTIDES AND USES THEREOF” (LATERAL IP PTY LTD, priority 2019, published 2022)
“And” between values parts separate entries of the source, which are not always exact repeats. Identical values can stand only once.

Assays:
Assay type in all cases: in vivo, human
migraine [1] = assay: Case study 4: LAT8881 injected into the right greater occipital nerve during a migraine attack; settings: 0.4 mg injected into right greater occipital nerve
Experimental: The subject was a person that suffers from migraines and occipital neuralgia. The subject presented with bilateral tenderness of both occipital nerve sites and bilateral headaches, bitemporally and behind the eyes, all indicative of a migraine attack.
Dosage: 0.4 mg of LAT8881 (SEQ ID NO:2) injected into the right greater occipital nerve.

migraine [2] = assay: Case studies 1-3: oral LAT8881 capsules taken during a migraine attack, self-rated pain and nausea
migraine headache = assay: Randomised, placebo-controlled, double-blind, crossover proof of concept study of oral LAT8881 in acute migraine headache; settings: 60 mg oral
From the text: The primary objective of this study was to evaluate the effect of oral LAT8881 on migraine headache compared with placebo, when assessed by the headache severity on an 11-point Numeric Rating Scale (NRS).
The secondary objectives of this study included: • a) to evaluate the effect of oral LAT8881 on migraine-associated symptoms compared with placebo, when assessed by the change in symptoms based on a 11-point Likert scale; • b) to investigate the percentage of subjects achieving “no headache pain” following treatment with oral LAT8881 compared with placebo at any time-point to 8 hours post dose, with no use of rescue medication; and • c) to evaluate the safety and tolerability of single doses of oral LAT8881 in subjects with migraine headache.
This was a randomised, placebo-controlled, double-blind, crossover, Phase Ha proof of concept study to investigate the efficacy and safety of oral LAT8881 (SEQ ID NO:2) in acute migraine headache with or without aura.
Subjects entered into the study were randomised to receive IMP (LAT8881; 60 mg or placebo), taken at the onset (within one hour from the onset of pain) of a migraine headache of moderate to severe intensity [Numeric rating scale (NRS)≥4]. Subjects were advised not to take rescue medication until at least 2 hours post dose with LAT8881. Subjects were given one dose of IMP (2 capsules), to treat one migraine headache.
After treatment of one migraine headache (or a maximum 28 days), the subject was asked to return to the clinic for re-evaluation and crossover to the second treatment. In the second treatment period, subjects were asked to take IMP in the same manner as in treatment period 1.
Subjects entered into the study were randomised to receive IMP (LAT8881; 60 mg or placebo; orally), to be taken at the onset (within one hour from the onset of pain) of a migraine headache of moderate to severe intensity.
Primary efficacy endpoints included a change in migraine headache pain score, using an 11-point NRS, (0=none, 10=worst imaginable), from the time of dosing to 0.5, 1.0, 1.5, 2, 4, 8 and 24 hours post dose. Pain was recorded in the subject' diary and was expected to reflect the subject's pain at the time of recording.
Secondary efficacy endpoints included: • a) Change in migraine-associated symptoms of nausea, photophobia and phonophobia. Symptoms were assessed on an 11-point Likert scale with 0=no symptoms and 10 being severe symptoms at time of dosing and at 0.5, 1.0, 1.5, 2, 4, 8 and 24 hours post dose; • b) Change in each subject's most troublesome symptom that may include nausea, photophobia and phonophobia cognitive impairment, dizziness and functional disability. Symptoms were assessed on an 11-point Likert scale with 0=no symptoms and 10 being severe symptoms at time of dosing and at 0.5, 1.0, 1.5, 2, 4, 8 and 24 hours post dose; and • c) The percentage of subjects achieving “no headache pain” at 0.5, 1.0, 1.5, 2, 4 and 8 hours post dose.
Post-hoc analyses were undertaken to assess the responder rate at each time point after dose of IMP. Two classifications of responder were defined: at least 30% change from baseline in NRS score and an NRS score of less than or equal to 3 at the post dose time points. After unblinding, it was discovered that one subject had recorded a pre-dose NRS score of 2 in period 1, a major protocol deviation as the instructions were to take IMP within one hour of the onset of a migraine headache of moderate to severe intensity (NRS>=4). This subject's data for this period was excluded. The responder rate for each treatment and difference between LAT8881 and placebo (95% confidence interval) at each time point are provided in Table 2, below (P1=Period 1; P2=Period 2; Photo=Photophobia; Phono=Phonophobia). FIGS. 1-4 show selected examples of NSR Pain Scores of subjects that completed the study and who received treatment with either placebo or with LAT8881 (SEQ ID NO:2; 60 mg per dose, orally).

[3] = Case Study 2, 1 mg, 4 hours after dosing, 8 out of 10 at time of dosing
[4] = 2 subjects menstruating at the time of the migraine, NRS pain score
[5] = of the 15 subjects who completed the study
[6] = subjects who showed a benefit, NRS pain score
[7] = subjects who were slightly worse, NRS pain score

## YLRIVQCRSVEGSCGF (listed as Homo sapiens) [LAT8881, C-terminal fragment of human growth hormone (hGH) spanning amino acid residues 178-192, with an additional tyrosine residue at the N-terminus]
Migraine [1]; Case Study 4, migraines and occipital neuralgia, within ten minutes
  migraine pain reported by subject: pain-free
Migraine [1]; Case Study 4
  other effects reported by subject: mental clarity and loss of brain fog
Migraine [1]; Case Study 4, within ten minutes, bilateral tenderness at presentation
  tenderness over the occipital nerve: no tenderness on either side over the occipital nerve
Migraine [2]; Case Study 1, 1 mg (four 0.25 mg capsules), an hour after dosing, 8 out of 10 at time of dosing
  migraine pain rating: 7 out of 10
Migraine [2]; Case Study 1, 1 mg, 4 hours after dosing, 7 out of 10 at time of dosing
  nausea rating: 3 out of 10
Migraine [2]; Case Study 1, 1 mg, 4 hours after dosing, 8 out of 10 at time of dosing
  migraine pain rating: 6 out of 10
Migraine [2]; Case Study 1, 1 mg, an hour after dosing, 7 out of 10 at time of dosing
  nausea rating: 5 out of 10
Migraine [2]; Case Study 1, 1 mg, subject averages about one migraine per month
  migraine recurrence after dosing: No migraine was reported in the following month
Migraine [2]; Case Study 2, 1 mg (two 0.5 mg capsules), an hour after dosing, 8 out of 10 at time of dosing
  migraine pain rating: 2 out of 10
Migraine [2]; [3]
  migraine pain rating: 1 out of 10
  nausea rating: 1 out of 10
Migraine [2]; Case Study 2, 1 mg, an hour after dosing, 8 out of 10 at time of dosing
  nausea rating: 2 out of 10
Migraine [2]; Case Study 2, 1 mg, subject averages about two migraines per month
  migraine recurrence after dosing: No migraines reported in the following two months
Migraine [2]; Case Study 3, 0.5 mg, overnight, 0 out of 10 at time of dosing
  nausea rating: 0 out of 10
Migraine [2]; Case Study 3, 0.5 mg, subject has migraines once every 3-6 months
  migraine recurrence after dosing: No migraines reported in the following three months
Migraine headache; [4]
  average score reduction in menstruating subjects: 6
  range of score reduction in menstruating subjects: 10 to 2
Migraine headache; 11-point Likert scale, individual subjects
  Nausea change 2 hrs LAT8881: 0 (2×) and −5 (2×) and −10 and 1 and −1 (4×) and −2 (2×) and 2 and −8 and 3 and −3 and 6
Migraine headache; 11-point NRS (0=none, 10=worst imaginable), individual subjects
  LAT8881 pain score at 2 hours: 2 and 1 and 0 and 5 (2×) and 8 (3×) and 6 (4×) and 3 (2×) and 4 and 7 and 9
Migraine headache; 30 minutes post dose
  Responder rate (95% CI), 30% change from baseline: 0
  Responder rate (95% CI), NRS Score <= 3: 0
Migraine headache; 30 minutes post dose, responder = NRS score of less than or equal to 3
  Count/Total, NRS Score <= 3: 0/16
Migraine headache; 30 minutes post dose, responder = at least 30% change from baseline in NRS score
  Count/Total, 30% change from baseline: 0/16
Migraine headache; 1 hour post dose
  Count/Total, 30% change from baseline: 2/16
  Count/Total, NRS Score <= 3: 1/16
  Responder rate (95% CI), 30% change from baseline: 12.50
  Responder rate (95% CI), 30% change from baseline, difference LAT8881 60 mg-Placebo: 12.5 (−3.7, 28.7)
  Responder rate (95% CI), NRS Score <= 3: 6.25
  Responder rate (95% CI), NRS Score <= 3, difference LAT8881 60 mg-Placebo: 0 (−16.77, 16.77)
Migraine headache; 1.5 hours post dose
  Count/Total, 30% change from baseline: 3/16
  Count/Total, NRS Score <= 3: 3/16
  Responder rate (95% CI), 30% change from baseline: 18.75
  Responder rate (95% CI), 30% change from baseline, difference LAT8881 60 mg-Placebo: 12.5 (−10, 35)
  Responder rate (95% CI), NRS Score <= 3: 18.75
  Responder rate (95% CI), NRS Score <= 3, difference LAT8881 60 mg-Placebo: 12.5 (−10, 35)
Migraine headache; 2 hours
  subjects menstruating at the time of the migraine who benefited: 2 out of 2
Migraine headache; 2 hours post dose
  Count/Total, 30% change from baseline: 8/16
  Count/Total, NRS Score <= 3: 5/16
  Responder rate (95% CI), 30% change from baseline: 50.00
  Responder rate (95% CI), 30% change from baseline, difference LAT8881 60 mg-Placebo: 18.75 (−14.66, 52.16)
  Responder rate (95% CI), NRS Score <= 3: 31.25
  Responder rate (95% CI), NRS Score <= 3, difference LAT8881 60 mg-Placebo: 25 (-0.62, 50.62)
Migraine headache; 4 hours post dose
  Count/Total, 30% change from baseline: 8/16
  Count/Total, NRS Score <= 3: 5/16
  Responder rate (95% CI), 30% change from baseline: 50.00
  Responder rate (95% CI), 30% change from baseline, difference LAT8881 60 mg-Placebo: 0 (−34.65, 34.65)
  Responder rate (95% CI), NRS Score <= 3: 31.25
  Responder rate (95% CI), NRS Score <= 3, difference LAT8881 60 mg-Placebo: −6.25 (-39.09, 26.59)
Migraine headache; 8 hours post dose
  Count/Total, 30% change from baseline: 14/16
  Count/Total, NRS Score <= 3: 13/16
  Responder rate (95% CI), 30% change from baseline: 87.50
  Responder rate (95% CI), 30% change from baseline, difference LAT8881 60 mg-Placebo: 25 (−3.73, 53.73)
  Responder rate (95% CI), NRS Score <= 3: 81.25
  Responder rate (95% CI), NRS Score <= 3, difference LAT8881 60 mg-Placebo: 25 (−5.93, 55.93)
Migraine headache; 24 hours post dose
  Count/Total, 30% change from baseline: 16/16
  Count/Total, NRS Score <= 3: 15/16
  Responder rate (95% CI), 30% change from baseline: 100.00
  Responder rate (95% CI), 30% change from baseline, difference LAT8881 60 mg-Placebo: 12.5 (−3.7, 28.7)
  Responder rate (95% CI), NRS Score <= 3: 93.75
  Responder rate (95% CI), NRS Score <= 3, difference LAT8881 60 mg-Placebo: 6.25 (−13.83, 26.33)
Migraine headache; NRS pain score, predose to 2 hours, individual subjects
  LAT8881 change from baseline: −3 (3×) and −5 and −10 and 1 (3×) and 2 (2×) and −4 (2×) and −2 (3×) and −1 and 0
Migraine headache; most troublesome symptom, 11-point Likert scale, individual subjects
  Most Troublesome, change 2 hrs LAT8881: −5 (3×) and −10 and 3 (3×) and 0 (4×) and −4 and 1 and −2 (3×) and −1
Migraine headache; [5]
  number of subjects slightly worse at 2 hours: 5
  number of subjects unchanged at 2 hours: 1
  number of subjects whose pain had reduced to 3 or less after 2 hours: 4
Migraine headache; of the 15 subjects who completed the study, NRS pain score
  number of subjects who showed a benefit at 2 hours: 9
Migraine headache; phonophobia, 11-point Likert scale, individual subjects
  Phono change at 2 hrs LAT8881: 0 (9×) and −7 and 4 and 2 (2×) and −4 and −1 and −2 and 3
Migraine headache; photophobia, 11-point Likert scale, individual subjects
  Photo change at 2 hrs LAT8881: 0 (3×) and −2 (5×) and −7 and 1 (4×) and −6 (2×) and −4
Migraine headache; placebo led to an increase of 3 in the same subject
  pain score reduction in the subject menstruating at the time of each treatment: 2
Migraine headache; [6]
  median benefit at 2 hours: 3
  range of benefit at 2 hours: 1-10
Migraine headache; [7]
  median increase at 2 hours: 2
  range of increase at 2 hours: 1-2
